Test results taken from article PMC6131161, “Adjunctive use of celecoxib with anti-tuberculosis drugs: evaluation in a whole-blood bactericidal activity model” (Scientific Reports, 2018).
Values joined by “and” are separate entries in the source; they are usually repeats but may differ in a detail not shown here. Equal values may be shown once. “Also recorded” adds a separate entry of the source.

Columns and labels:
[1] = tested on: Mycobacterium tuberculosis (H37Rv); assay: Whole-blood bactericidal activity (WBA) assay, ex vivo, blood of dosed healthy volunteers; format: cell-based; details: for WBAcum(0–8) / WBAmax: mean (SD); for bactericidal activity in the WBA assay (in words): drug alone, single oral dose, over 8 hours post-dose
[2] = Plasma pharmacokinetics in healthy volunteers (LC-MS/MS, non-compartmental analysis); details: for Cmax / Tmax / half-life / AUC(0-t): human, plasma, po; for Tmax: median (min, max); for half-life: mean (SD); for AUC(0-t): AUC(0–8)
clinical = details: human, in vivo, po, 10 mg/kg
[3] = Celecoxib alone 400 mg single oral dose, PZA group, n = 9
[4] = Celecoxib alone 400 mg single oral dose, RIF group, n = 9
[5] = celecoxib levels in plasma, PZA + C, celecoxib 400 mg with pyrazinamide 25 mg/kg oral, geometric mean (min, max)
[6] = celecoxib levels in plasma, RIF + C, celecoxib 400 mg with rifampicin 10 mg/kg oral, geometric mean (min, max)
[7] = TB drug + Celecoxib: pyrazinamide 25 mg/kg with celecoxib 400 mg oral, PZA group, n = 9
[8] = TB drug alone: pyrazinamide 25 mg/kg single oral dose, PZA group, n = 9
[9] = TB drug alone: pyrazinamide 25 mg/kg single oral dose, PZA group, n = 9, listed as PZA
[10] = 25 mg/kg, pyrazinamide levels in plasma, PZA alone, 25 mg/kg single oral dose, geometric mean (min, max)
[11] = pyrazinamide levels in plasma, PZA + C, pyrazinamide 25 mg/kg with celecoxib 400 mg oral, geometric mean (min, max)
[12] = TB drug + Celecoxib: rifampicin 10 mg/kg with celecoxib 400 mg oral, RIF group, n = 7
[13] = TB drug alone: rifampicin 10 mg/kg single oral dose, RIF group, n = 9
[14] = TB drug alone: rifampicin 10 mg/kg single oral dose, RIF group, n = 9, listed as RIF

Cc1ccc(-c2cc(C(F)(F)F)nn2-c2ccc(S(N)(=O)=O)cc2)cc1 [Celecoxib, celecoxib]
WBAcum(0–8) [1, 3]: 0.02 (0.01) ΔlogCFU | WBAmax [1, 3]: 0.12 (0.10) ΔlogCFU | WBAcum(0–8) ([1]; Celecoxib alone 400 mg single oral dose, RIF + PZA groups combined, n = 18, cumulative over 8 h post-dose): 0.03 ± 0.01 ΔlogCFU and 0.03 (0.01) ΔlogCFU | WBAmax ([1]; Celecoxib alone 400 mg single oral dose, RIF + PZA groups combined, n = 18, up to 8 h post-dose, negative = killing): 0.14 (0.10) ΔlogCFU | WBAcum(0–8) [1, 4]: 0.03 (0.01) ΔlogCFU | WBAmax [1, 4]: 0.17 (0.09) ΔlogCFU | bactericidal activity in the WBA assay (in words) [1]: no bactericidal activity; also recorded: no activity alone | effect of celecoxib on rifampicin or pyrazinamide drug levels (in words) ([2]; celecoxib 400 mg co-administered with rifampicin 10 mg/kg or pyrazinamide 25 mg/kg): no significant effect | Cmax and AUC(0–8hrs) of celecoxib when co-administered with the TB drugs (in words) ([2]; celecoxib 400 mg with rifampicin or pyrazinamide versus alone): non-significant trend towards lower | AUC(0–8) ([2]; celecoxib levels in plasma, C alone, celecoxib 400 mg single oral dose, geometric mean (min, max)): 5.97 (2.91, 10.25) h*mg/L | Cmax ([2]; 400 mg, celecoxib levels in plasma, C alone, celecoxib 400 mg single oral dose, geometric mean (min, max)): 1140 ng/mL | Tmax ([2]; 400 mg, celecoxib levels in plasma, C alone, celecoxib 400 mg single oral dose): 2 h | half-life ([2]; 400 mg, t1/2, celecoxib levels in plasma, C alone, celecoxib 400 mg single oral dose): 269 min | AUC(0-t) [2, 5]: 4.23 µg·h/mL | AUC(0-t) [2, 6]: 4.53 µg·h/mL | Cmax [2, 5]: 760 ng/mL | Cmax [2, 6]: 890 ng/mL | Tmax ([2]; celecoxib levels in plasma, PZA + C, celecoxib 400 mg with pyrazinamide 25 mg/kg oral): 3 h | Tmax ([2]; celecoxib levels in plasma, RIF + C, celecoxib 400 mg with rifampicin 10 mg/kg oral): 2 h | half-life ([2]; t1/2, celecoxib levels in plasma, PZA + C, celecoxib 400 mg with pyrazinamide 25 mg/kg oral, includes 24 hour data where available): 437 min | half-life ([2]; t1/2, celecoxib levels in plasma, RIF + C, celecoxib 400 mg with rifampicin 10 mg/kg oral, includes 24 hour data where available): 399 min

NC(=O)c1cnccn1 [Pyrazinamide, pyrazinamide]
WBAcum(0–8), mean difference for TB drug with and without celecoxib (95% CI) ([1]; PZA group, paired data n = 9): −0.01 (−0.03, 0.00) ΔlogCFU | WBAmax, mean difference for TB drug with and without celecoxib (95% CI) ([1]; PZA group, paired data n = 9): −0.09 (−0.22, 0.04) ΔlogCFU | WBAcum(0–8) [1, 7]: 0.00 (0.01) ΔlogCFU | WBAmax [1, 7]: −0.12 (0.10) ΔlogCFU | WBAcum(0–8) [1, 8]: 0.01 ± 0.03 ΔlogCFU | WBAmax [1, 8]: −0.03 ± 0.23 ΔlogCFU | WBAcum(0–8) [1, 9]: 0.01 (0.03) ΔlogCFU | WBAmax [1, 9]: −0.03 (0.23) ΔlogCFU | bactericidal activity in the WBA assay (in words) [1]: no bactericidal activity; also recorded: appeared to be bacteriostatic | AUC(0-t) [2, 10]: 207 µg·h/mL | Cmax [2, 10]: 35500 ng/mL | Tmax ([2]; 25 mg/kg, pyrazinamide levels in plasma, PZA alone, 25 mg/kg single oral dose): 1 h | half-life ([2]; 25 mg/kg, t1/2, pyrazinamide levels in plasma, PZA alone, 25 mg/kg single oral dose): 687 min | AUC(0-t) [2, 11]: 212 µg·h/mL | Cmax [2, 11]: 35100 ng/mL | Tmax ([2]; pyrazinamide levels in plasma, PZA + C, pyrazinamide 25 mg/kg with celecoxib 400 mg oral): 1 h | half-life ([2]; t1/2, pyrazinamide levels in plasma, PZA + C, pyrazinamide 25 mg/kg with celecoxib 400 mg oral, includes 24 hour data where available): 674 min

CO[C@H]1/C=C/O[C@@]2(C)Oc3c(C)c(O)c4c(O)c(c(/C=N/N5CCN(C)CC5)c(O)c4c3C2=O)NC(=O)/C(C)=C\C=C\[C@H](C)[C@H](O)[C@@H](C)[C@@H](O)[C@@H](C)[C@H](OC(C)=O)[C@@H]1C [Rifampicin, rifampicin]
AUC(0-t) (clinical; AUC(0–8)): 92300 ng·h/mL | Cmax (clinical; Cmax): 19300 ng/mL | Tmax (clinical; Tmax): 1 h | WBAcum(0–8), mean difference for TB drug with and without celecoxib (95% CI) ([1]; RIF group, paired data n = 7): 0.00 (−0.02, 0.02) ΔlogCFU | WBAmax, mean difference for TB drug with and without celecoxib (95% CI) ([1]; RIF group, paired data n = 7): −0.03 (−0.25, 0.18) ΔlogCFU | WBAcum(0–8) [1, 12]: −0.22 (0.03) ΔlogCFU | WBAmax [1, 12]: −2.51 (0.23) ΔlogCFU | WBAcum(0–8) [1, 13]: −0.22 ± 0.02 ΔlogCFU | WBAmax [1, 13]: −2.48 ± 0.24 ΔlogCFU | WBAcum(0–8) [1, 14]: −0.22 (0.02) ΔlogCFU | WBAmax [1, 14]: −2.48 (0.24) ΔlogCFU | bactericidal activity in the WBA assay (in words) [1]: strong bactericidal activity
